According to patent US20190144401A1, “IMINOSYDNONE DERIVATIVES FOR CONJUGATION AND RELEASE OF COMPOUNDS OF INTEREST” (UNIVERSITE DE STRASBOURG, priority 2014, published 2019):

Legend:
[1] = Kinetics of the coupling reaction of iminosydnones with BCN (HPLC monitoring); type: physicochemical; conditions: 100 μM iminosydnone, 150 μM BCN, PBS 0.1M (pH 7.4) containing 10% DMSO
Protocol: (§1) The kinetics of the coupling reaction of different iminosydnones with two cyclic alkynes was studied, according to the following scheme.
(§2) Reactions of iminosydnones with BCN (Bicyclononyne) or TMTH were carried out in PBS/DMSO (9:1) mixtures at 100 μM concentration of sydnones and 150 μM concentration of BCN or TMTH using the following procedure:
(§3) To 900 μL of phosphate buffered saline (PBS, 100 mM) was added 87.5 μL of DMSO, 10 μL of the solution of benzamide (internal standard, 100 mM in DMSO), 1 μL of the solution of iminosydnone (100 mM in DMSO) and 1.5 μL of the solution of BCN or TMTH (100 mM in DMSO). The reaction mixture was injected in HPLC every 30 min and the conversion was followed by measuring the normalized sydnone peak area.
(§4) Second order reaction rate was determined by plotting ln([A]/[B])/([A]−[B]) versus time and analyzing by linear regression (Equation). Second order rate constant corresponds to the determined slope.
(§5) Equation. [A]—concentration of iminosydnones (M); [B]—concentration of BCN (M); t—reaction time (sec); k—reaction rate (M^−1·sec^−1)

[2] = Kinetics of the coupling reaction of iminosydnones with TMTH (HPLC monitoring); type: physicochemical; conditions: 100 μM iminosydnone, 150 μM TMTH, PBS 0.1M (pH 7.4) containing 10% DMSO
Protocol: as §1, §2, §3, §4, §5

Row | Structure (SMILES) | K (BCN) [1] | K (TMTH) [2]
1 | [NH-]c1c[n+](-c2ccccc2)no1 [Im1] | no reaction | 
2 | CC(=O)[N-]c1c[n+](-c2ccccc2)no1 [Im2] | 0.002 M⁻¹ s⁻¹ | 2.2 M⁻¹ s⁻¹
3 | Cc1ccc(-[n+]2cc([N-]C(=O)Cc3ccccc3)on2)cc1 [Im3] | 0.004 M⁻¹ s⁻¹ | 
4 | Cc1ccc(-[n+]2cc([N-]C(=O)CCc3ccccc3)on2)cc1 [Im4] | 0.034 M⁻¹ s⁻¹ | 
5 | Cc1ccc(NC(=O)[N-]c2c[n+](-c3ccccc3)no2)cc1 [Im5] | 0.069 M⁻¹ s⁻¹ | 43.1 M⁻¹ s⁻¹
6 | Cc1ccc(NC(=O)[N-]c2c[n+](-c3ccc(O)cc3)no2)cc1 [Im6] | 0.008 M⁻¹ s⁻¹ | 4.1 M⁻¹ s⁻¹
7 | Cc1ccc(NC(=O)[N-]c2c[n+](-c3ccc(C(=O)O)cc3)no2)cc1 [Im7] | 0.108 M⁻¹ s⁻¹ | 61.2 M⁻¹ s⁻¹
8 | CCOC(=O)c1ccc(NC(=O)[N-]c2c[n+](-c3ccc(O)cc3)no2)cc1 [Im8] | 0.008 M⁻¹ s⁻¹ | 2.5 M⁻¹ s⁻¹
9 | Cc1ccc(-[n+]2cc([N-]C(=O)NCc3ccccc3)on2)cc1 [Im9] | 0.004 M⁻¹ s⁻¹ | 
10 | Cc1ccc(-[n+]2noc([N-]C(=O)NCc3ccccc3)c2Br)cc1 [Im10] | 0.060 M⁻¹ s⁻¹ | 
11 | Cc1ccc(-[n+]2cc([N-]C(=O)OCc3ccccc3)on2)cc1 [Im11] | 0.026 M⁻¹ s⁻¹ | 
12 | Cc1ccc(-[n+]2noc([N-]C(=O)OCc3ccccc3)c2Br)cc1 [Im12] | 0.150 M⁻¹ s⁻¹ | 
13 | N#CC#Cc1ccc(NC(=O)[N-]c2c[n+](-c3ccc(C(=O)O)cc3)no2)cc1 [Im14, (3-(4-carboxyphenyl)-1,2,3-oxadiazol-3-ium-5-yl)((4-(cyanoethynyl)phenyl)carbamoyl)amide] | 0.132 M⁻¹ s⁻¹ | 
